According to patent publication EP2085394B1, “Metronidazole derivatives as antiparasitic agents” (University of Jordan, priority 2008, dated 2009):
Converted amounts (≈) assume the structure as drawn.

Assays:
Format in all cases: cell-based
[1] = system: Giardia intestinalis WB strain; test: Antigiardial activity, tube method; conditions: for IC100 Giardia intestinalis / IC50: 72 hours, (36-37) °C, parasite count; for IC50: Giardia duodenalis; for lethal activity / IC50 times less than that of metronidazole: Giardia intestinalis; for lethal activity: result in words; for IC50 times less than that of metronidazole: relative to the standard drug metronidazole
Procedure: (§1) Entamoeba histolytica HK-9 strain (ATCC number 30015) was cultured in LYI-S-2 medium supplemented with antibiotics. Giardia intestinalis WB strain (ATCC number 30957) was grown in a modified YI-S medium with antibiotics. Both parasites were cultivated in 15-mL screw-capped borosilicate glass tubes containing 13 mL medium. The tubes were incubated on a 15° horizontal slant at (36-37) °C. Culture maintenance and subculturing was performed as described by Clark and Diamond. Entamoeba and Giardia were harvested from confluent cultures by chilling of the tubes on ice for 5-10 min to detach cells, followed by centrifugation at 800 x g for 5 min. Leishmania donovani and L. tropica promastigotes were cultured in Schneider's medium containing 20 % foetal calf serum and antibiotics at 24°C. Stationary phase promastigotes were harvested by centrifugation at 1000 x g for 10 min.
(§2) The antiamoebic and antigiardial activities of metronidazole-derivatives were tested using the tube method according to published procedures with some modifications. Eight milligrams of a test compound or metronidazole were dissolved in 10 µL of dimethyl sulfoxide (DMSO) and completed with 10 mL growth medium. The solutions were filter sterilized using 0.22 µm syringe filters and the appropriate volumes of the solutions were taken to prepare the concentrations of each compound in 15-mL screw-capped borosilicate glass tubes. For each compound, concentrations of 60, 30, 15, 7.5, 3.5, 1.7, 0.8, 0.4, 0.2, 0.1, 0.05, 0.02, 0.01, 0.005 µg/mL medium were prepared in a final volume of 15 mL to exclude air from the tube. For more accurate determination of the biologically active concentration of the compound, other concentrations around the above mentioned ones were also tested. Each tube was inoculated with 20,000 cells of the parasite under testing (Entamoeba or Giardia). Each compound was assayed in duplicate in each of three independent experiments. In each assay, two sets of controls were performed, one without any test compound and another with metronidazole. The caps of Entamoeba and Giardia tubes were tightly screwed and wrapped with parafilm. The tubes were incubated on a 15° horizontal slant at (36-37) °C for 72 hours.
(§3) The number of parasites in the tubes was determined as described in the literature by counting in a hemacytometer at the 10X objective. For counting of Entamoeba and Giradia, the tubes were placed on ice to permit detachment of the parasite and centrifuged at 1000 x g for 10 min. The supernatant was discarded and 1 mL fresh medium was added to each tube. Then, 25 µL of the parasite suspension in each tube was mixed with 100 µL of 0.4 % trypan blue in phosphate buffered saline (PBS) to distinguish viable from dead parasites.
(§4) The minimal inhibitory concentration (MIC) defined as the minimum concentration of a compound at which no parasitic growth was observed. The 50% inhibitory concentration (IC50) was the concentration of compounds which cut the number of parasites to half that in the negative control (growth medium + DMSO + parasites).

[2] = system: Leishmania donovani promastigotes; test: Antileishmanial activity, 96-well plates; conditions: for lethal activity: Leishmania donovani promastigotes, result in words; for IC50: Leishmania donovani; for IC50 / IC100 Leishmania donovani: promastigotes, 72 h, 24°C
Procedure: as §1
(§5) The antileishmanial activity of metronidazole-derivatives was tested in 96-well plates. Each of the meronidazole-derivatives and the reference drugs were dissolved in 10 µL of dimethyl sulfoxide (DMSO) and were completed with […] growth medium. The solutions were filter sterilized using 0.22 µm syringe filters. Then, 170 µL-two fold serial dilutions of each of the compounds and metronidazole starting at a concentration of 2000 µg/mL in culture medium were prepared in flat bottomed 96-well microtiter plates of 400-µL-well-capacity. A suspension containing 10^5 of Leishmania promastigotes per milliliter culture medium was prepared and 170-µL portions of the suspension were added to the appropriate wells. Plates were covered with the microtiter plate lids and incubated at 24°C. The number of parasites in each well was determined after 72 h by counting in a hemacytometer at the 10X objective lens. Leishmania viability was determined by observing promastigote motility. Each compound was assayed in duplicate in each of three independent experiments. In each assay two sets of controls were performed, one without any test compound and another with amphotericin B as a standard antileishmanial drug.
as §4

[3] = system: Leishmania tropica promastigotes; test: Antileishmanial activity, 96-well plates; conditions: for lethal activity: Leishmania tropica promastigotes, result in words; for IC50: Leishmania tropica; for IC50 / IC100 Leishmania tropica: promastigotes, 72 h, 24°C
Procedure: as §1, §5, §4

[4] = system: Entamoeba histolytica HK-9 strain; test: Antiamoebic activity, tube method; conditions: for IC100 Entamoeba histolytica / IC50: 72 hours, (36-37) °C, parasite count; for lethal activity / IC50 / IC50 times less than that of metronidazole: Entamoeba histolytica; for lethal activity: result in words; for IC50 times less than that of metronidazole: relative to the standard drug metronidazole
Procedure: as §1, §2, §3, §4

Vero cells = test: Cytotoxicity assay, trypan blue exclusion; conditions: compared with the standard drug
Procedure: (§6) The cytotoxicity of the metronidazole-derivatives and the reference drugs was investigated on Hep-2 and Vero cells using the standard cytotoxicity assay and the trypan blue exclusion method, as described in the literature, with modifications. A cell suspension (10^5 cells/mL RPMI medium containing 10% inactivated foetal calf serum) was prepared from confluent cultures and 100 µL portions of the suspension were added to the wells of 96-well plates. The cells were incubated for 24 h at 37 °C and 5 % CO2 and the medium in each well was then replaced with fresh 150 µL medium. Solutions of the test compounds or reference drugs were prepared and sterilized as described above (Antiprotozolal activity). Then, 150 µL-two fold serial dilutions of each of the compounds and the reference drugs starting at a concentration of 2000 µg/mL in culture medium were prepared in the plates. After 48 hour incubation at 37 °C and 5 % CO2, the number of cells in each well was determined as follows: The medium in each well was gently replaced with 100 µL of 0.25% (w/v) trypsin-0.53 mM EDTA solution and the plates were incubated for 5 minute at 37 °C to detach the cells followed by the addition of 200 µL of trypan blue solution were added to each well and the plates were, then, placed on ice. The cells were counted in a hemacytometer at the 10X objective. Each compound or reference drug was assayed in duplicate in each of three independent experiments. In each assay the negative controls (without any test compound or reference drug) were included in duplicates. IC0 was the concentration of compound at which the number of cells in the well was more than or equal to that of the negative control (IC0 = no inhibition of cell growth). Table 1. Antiamoebic and antigiardial activities of compounds IA, IIA, and IIIA

Hep-2 cells = test: Cytotoxicity assay, trypan blue exclusion; conditions: compared with the standard drug
Procedure: as §6

Row | Structure (SMILES) | IC50 [1] [µg/mL] | IC50 times less than that of metronidazole [1] [times] | IC50 [2] [µg/mL] | IC50 [3] [µg/mL] | IC50 [4] [µg/mL] | IC50 times less than that of metronidazole [4] [times] | IC100 Giardia intestinalis [1] [µg/mL] | lethal activity [1] | lethal activity [2] | IC100 Leishmania donovani [2] [µg/mL] | lethal activity [3] | IC100 Leishmania tropica [3] [µg/mL] | IC100 Entamoeba histolytica [4] [µg/mL] | lethal activity [4] | cytotoxicity (Vero cells) | cytotoxicity (Hep-2 cells)
1 | C[C@@H]1[C@H](O)[C@@H](C)/C=C/C=C/C=C/C=C/C=C/C=C/C=C/[C@H](O[C@@H]2O[C@H](C)[C@@H](O)[C@H](N)[C@@H]2O)C[C@@H]2O[C@](O)(C[C@@H](O)C[C@@H](O)[C@H](O)CC[C@@H](O)C[C@@H](O)CC(=O)O[C@H]1C)C[C@H](O)[C@H]2C(=O)O [Amphotericin B, reference compound] |  |  | 0.08 (≈ 0.0866 µM) | 0.08 (≈ 0.0866 µM) |  |  |  |  |  | 2.5 |  | 2.5 |  |  |  | 
2 | Cc1ncc([N+](=O)[O-])n1CCNS(=O)(=O)c1sc(Cl)cc1Br [IIA] | 0.04 (≈ 0.0931 µM) | 20 | 300 (≈ 698 µM) | 150 (≈ 349 µM) | 0.04 (≈ 0.0931 µM) | 20 | 0.3 | potent lethal activity | lethal activity | 2000 | lethal activity | 2000 | 0.3 | potent lethal activity | equivalent in cytotoxicity to the standard drug | equivalent in cytotoxicity to the standard drug

Continued, in another order:

Row | IC50 [1] [µg/mL] | IC50 times less than that of metronidazole [1] [times] | IC50 [2] [µg/mL] | IC50 [3] [µg/mL] | IC50 [4] [µg/mL] | IC50 times less than that of metronidazole [4] [times] | Structure (SMILES) | IC100 Giardia intestinalis [1] [µg/mL] | lethal activity [1] | lethal activity [2] | IC100 Leishmania donovani [2] [µg/mL] | lethal activity [3] | IC100 Leishmania tropica [3] [µg/mL] | IC100 Entamoeba histolytica [4] [µg/mL] | lethal activity [4] | cytotoxicity (Vero cells) | cytotoxicity (Hep-2 cells)
3 | 0.01 (≈ 0.0363 µM) | 80 | 300 (≈ 1090 µM) | 150 (≈ 545 µM) | 0.01 (≈ 0.0363 µM) | 80 | Cc1ncc([N+](=O)[O-])n1CCOc1ccc(C=O)cc1 [Compound IA, 4-[2-(2-methyl-5-nitro-1H-imidazol-1-yl)ethoxy]benzaldehyde] | 0.14 | potent lethal activity | lethal activity | 2000 | lethal activity | 2000 | 0.14 | potent lethal activity | equivalent in cytotoxicity to the standard drug | equivalent in cytotoxicity to the standard drug
4 | 0.8 (≈ 4.67 µM) |  | 2000 (≈ 11700 µM) | 2000 (≈ 11700 µM) | 0.8 (≈ 4.67 µM) |  | Cc1ncc([N+](=O)[O-])n1CCO [Metronidazole, 2-(2-methyl-5-nitro-1H-imidazol-1-yl) ethanol] | 3.2 |  |  |  |  |  | 3.2 |  |  | 
5 | 0.04 (≈ 0.141 µM) | 20 | 62.5 (≈ 221 µM) | 62.5 (≈ 221 µM) | 0.04 (≈ 0.141 µM) | 20 | Cc1ncc([N+](=O)[O-])n1CCN1CCN(CCO)CC1 [IIIA] | 0.8 | potent lethal activity | lethal activity | 250 | lethal activity | 250 | 0.8 | potent lethal activity | equivalent in cytotoxicity to the standard drug | equivalent in cytotoxicity to the standard drug
